We go through 18 molecules from patent publication US8486962B2, “Antifungal agents” (F2G Ltd., priority 2005, dated 2013).

What all share (format): cell-based
For one test, the system named is Aspergillus flavus. Put plainly: MIC, YAG medium, Aspergillus flavus. Conditions: YAG medium; for MIC: Aspergillus flavus, read-out: MIC A Flavus 01. Here is the method:
(§1) Measurement of Minimum Inhibitory Concentrations (MICs)
(§2) Between 1 and 5 mgs of compound were accurately weighed out into a sterile Eppendorf tube. The compound was dissolved in DMSO to give a solution containing 5 mg/ml. Tubes were stored at −20° C. until required.
(§3) On the day of testing thawed solutions were vortex mixed to ensure homogeneity. 30 μl of solution was removed and added to 570 μl of sterile water in a separate sterile Eppendorf. The thoroughly mixed solution was used to prepare a series of doubling dilutions in water, in a deep well plate. Eleven replicate plates were prepared using a Minitrak by aspirating 20 μl from each well into eleven clear polystyrene 96 well plates.
(§4) Spores of Aspergillus spp (Aspergillus fumigatus, Aspergillus terreus, Aspergillus niger and Aspergillus flavus) were harvested from cultures grown on Sabarauds agar for 5 days, and resuspended in PBS/Tween 80 to approx 1×10^7 cfu/ml Other filamentous fungi (Fusarium solani, Scedosporium spp., Trichophyton spp., Absidia corymbifera), were grown on Sabarauds agar for 2-10 days and spores/hyphae resuspended in PBS/Tween to give approx 1×10^7 cfU/ml. Candida species (Candida albicans, Candida glabrata, Candida krusei, Candida parapsilosis and Candida tropicalis) were grown on Sabarauds agar, cells were harvested from the agar using a sterile loop and resuspended in PBS/Tween 80 to approx 1×10^6 cfu/ml. Each organism suspension was diluted in RPMI medium, containing 2% glucose and 0.135M MOPS buffer (pH7.0) to 2×10^4 cfu/ml for Aspergillus spp and other filamentous fungi and 2×10^3 cfu/ml for yeast. 80 μl of an organism suspension was added to each well of the plate containing drug dilutions.
(§5) This produced MIC plates with a drug range 50-0.05 mg/L and organism inocula of 1-2×10^4 cfu/ml for Aspergillus spp and other filamentous fungi and 1-2×10^3 cfu/ml for yeasts. All plates were incubated for 24-48 hrs at 35° C. Growth was assessed by monitoring the optical density at 485 nm for each well. The MIC of a compound is the lowest drug concentration that inhibits growth of an organism by >80% compared with a drug free control. MICs are recorded as mg/L. Other growth media can be used for susceptibility testing, and the activity of the described compounds can also be assessed in a medium comprising, 1% glucose, 1% ammonium chloride and 0.5% yeast extract (YAG medium). To perform MIC tests in this medium, dilutions of compounds are prepared in microtitre plates as described above. Fungal strains to be tested are grown and harvested in an identical manner to that described above, each organism suspension is then diluted in YAG medium to 2×10^4 cfu/ml for Aspergillus spp and other filamentous fungi and 2×10^3 cfu/ml for yeast. 80 μl of an organism suspension was added to each well of the plate containing drug dilutions. This produced MIC plates with a drug range 50-0.05 mg/L and organism inocula of 1-2×10^4 cfu/ml for Aspergillus spp and other filamentous fungi and 1-2×10^3 cfu/ml for yeasts. All plates were incubated for 24 hrs at 35° C. Growth was assessed by monitoring the optical density at 485 nm for each well. The MIC of a compound is the lowest drug concentration that inhibits growth of an organism by >70% compared with a drug free control. MICs are recorded as mg/L. In cases where the MIC of an organism is […]0.05 mg/L the MIC is repeated using a concentration range of 0.5-0.0005 mg/L. MIC tests in YAG medium have more clear-cut endpoints and have slightly lower MICS than those performed in RPMI medium.
(§6) The following organisms were tested: Aspergillus fumigatus AF293 and Aspergillus fumigatus AF210, Aspergillus niger, Aspergillus terreus, Aspergillus favus, Candida albicans, Candida krusei, Candida tropicalis, Candida glabrata, Candida parapsilosis, Trichophyton rubrum, Trichophyton mentagrophytes, Scedosporium prolificans, Scedosporium apiospermum, Absidia corymbifera, Fusarium solani.

For test [1], the system named is Aspergillus fumigatus AF210. Put plainly: MIC, YAG medium, Aspergillus fumigatus AF210. The conditions noted are these: YAG medium; for MIC: Aspergillus fumigatus, AF210, read-out: MIC A Fum. 210. The procedure:
as §1, §2, §3, §4, §5, §6

Another test deals with Aspergillus niger. Put plainly: MIC, YAG medium, Aspergillus niger. The conditions noted are these: YAG medium; for MIC: Aspergillus niger, read-out: MIC A Niger 1. The procedure:
as §1, §2, §3, §4, §5, §6

A further test deals with Aspergillus terreus. Put plainly: MIC, YAG medium, Aspergillus terreus. The conditions noted are these: YAG medium; for MIC: Aspergillus terreus, read-out: MIC A Terreus 4. Here is the method: as §1, §2, §3, §4, §5, §6
For test [2], the system named is Aspergillus fumigatus AF293. As to the kind of experiment: MIC, YAG medium, Aspergillus fumigatus AF293. Conditions: YAG medium; for MIC: Aspergillus fumigatus, AF293, read-out: MIC A Fum. 293. Here is the method:
as §1, §2, §3, §4, §5, §6

≈ marks a conversion by molar mass, not a printed value.

`CON=C(C(=O)Nc1ccc(OC)cc1)c1c(-c2ccccc2)cc2ccccn12` (mixture of isomers) [Example 298, 2-[(E/Z)-Methoxyimino]-N-(4-methoxy-phenyl)-2-(2-phenyl-indolizin-3-yl)-acetamide]: in the test with Aspergillus flavus, the “MIC A Flavus 01” value is 0.1 µg/mL. Further, the “MIC A Fum. 210” value in test [1] turned out to be 0.8 µg/mL. Also, the “MIC A Niger 1” value against Aspergillus niger worked out at 0.2 µg/mL. Moreover, the “MIC A Terreus 4” value against Aspergillus terreus stood at 0.2 µg/mL. The “MIC A Fum. 293” value in test [2] was found to be 0.8 µg/mL.

By MIC is commonly meant the lowest concentration found to suppress growth. As to `COC(=O)c1ccccc1NC(=O)C(=O)c1c(-c2ccccc2)cc2ccccn12` [Example 142, 2-[2-Oxo-2-(2-phenyl-indolizin-3-yl)-acetylamino]-benzoic acid methyl ester], the MIC was over 50 µg/mL with Aspergillus flavus; over 50 µg/mL in test [1]; 0.8 µg/mL (≈ 2.01 µM) in the test on Aspergillus niger; over 50 µg/mL in the test with Aspergillus terreus; over 50 µg/mL in test [2].

As to `COc1ccc(NC(=O)C(=O)c2c(-c3cccnc3)cc3ccccn23)cc1` [Example 147, N-(4-Methoxy-phenyl)-2-oxo-2-(2-pyridin-3-yl-indolizin-3-yl)-acetamide], the MIC in the test on Aspergillus flavus worked out at 0.1 µg/mL (≈ 0.269 µM); in test [1], 6.25 µg/mL (≈ 16.8 µM); with Aspergillus niger, 0.1 µg/mL (≈ 0.269 µM); in the test on Aspergillus terreus it was 3.1 µg/mL (≈ 8.35 µM); in test [2] it was 12.5 µg/mL (≈ 33.7 µM).

`O=C(Nc1ccccn1)C(=O)c1c(-c2ccccc2)cc2ccccn12` [Example 151, 2-Oxo-2-(2-phenyl-indolizin-3-yl)-N-pyridin-2-yl-acetamide]: the MIC turned out to be 1.6 µg/mL (≈ 4.69 µM) in the test with Aspergillus flavus; 6.25 µg/mL (≈ 18.3 µM) in test [1]; 0.4 µg/mL (≈ 1.17 µM) with Aspergillus niger; 0.4 µg/mL (≈ 1.17 µM) in the test on Aspergillus terreus; 6.25 µg/mL (≈ 18.3 µM) in test [2].

For the molecule `O=C(Nc1cccnc1)C(=O)c1c(-c2ccccc2)cc2ccccn12` [Example 152, 2-Oxo-2-(2-phenyl-indolizin-3-yl)-N-pyridin-3-yl-acetamide], the minimal inhibitory concentration (MIC) in the test on Aspergillus flavus is 1.6 µg/mL (≈ 4.69 µM); in test [1], 25 µg/mL (≈ 73.2 µM); in the test with Aspergillus niger, 0.4 µg/mL (≈ 1.17 µM); in the test with Aspergillus terreus it was 0.8 µg/mL (≈ 2.34 µM); in test [2] it was 12.5 µg/mL (≈ 36.6 µM).

For `CNC(=O)c1ccc(NC(=O)C(=O)c2c(-c3ccccc3)cc3ccccn23)cc1` [Example 153, N-Methyl-4-[2-oxo-2-(2-phenyl-indolizin-3-yl)-acetylamino]-benzamide], the MIC in the test with Aspergillus flavus was 3.1 µg/mL (≈ 7.8 µM); in test [1], 25 µg/mL (≈ 62.9 µM); in the test on Aspergillus niger it was 0.8 µg/mL (≈ 2.01 µM); in the test with Aspergillus terreus, over 50 µg/mL; in test [2], over 50 µg/mL.

On to `COc1ccc(NC(=O)C(=O)c2c(-c3ccc(F)cc3)cc3ccccn23)cn1` [Example 157, 2-[2-(4-Fluoro-phenyl)-indolizin-3-yl]-N-(6-methoxy-pyridin-3-yl)-2-oxo-acetamide], for which the MIC in the test on Aspergillus flavus is 0.1 µg/mL (≈ 0.257 µM); in test [1], 1.6 µg/mL (≈ 4.11 µM); in the test on Aspergillus niger, 0.1 µg/mL (≈ 0.257 µM); in the test on Aspergillus terreus it was 0.2 µg/mL (≈ 0.514 µM); in test [2] it was 6.25 µg/mL (≈ 16.1 µM).

In the case of `O=C(Nc1ccncc1)C(=O)c1c(-c2ccccc2)cc2ccccn12` [Example 158, 2-Oxo-2-(2-phenyl-indolizin-3-yl)-N-pyridin-4-yl-acetamide], the minimum inhibitory concentration (MIC) in the test on Aspergillus flavus was over 50 µg/mL; in test [1] it was over 50 µg/mL; with Aspergillus niger, 0.4 µg/mL (≈ 1.17 µM); in the test with Aspergillus terreus, over 50 µg/mL; in test [2] it was over 50 µg/mL.

For `O=C(Nc1ccc(C(=O)O)cc1)C(=O)c1c(-c2ccccc2)cc2ccccn12` [Example 159, 4-[2-Oxo-2-(2-phenyl-indolizin-3-yl)-acetylamino]-benzoic acid], the MIC with Aspergillus flavus was over 50 µg/mL; in test [1], over 50 µg/mL; with Aspergillus niger, 1.6 µg/mL (≈ 4.16 µM); in the test on Aspergillus terreus, 50 µg/mL (≈ 130 µM); in test [2], over 50 µg/mL.

`CN(C)C(=O)c1ccc(NC(=O)C(=O)c2c(-c3ccccc3)cc3ccccn23)cc1` [Example 160, N,N-Dimethyl-4-[2-oxo-2-(2-phenyl-indolizin-3-yl)-acetylamino]-benzamide]: the MIC with Aspergillus flavus was 3.1 µg/mL (≈ 7.53 µM); in test [1] it was 50 µg/mL (≈ 122 µM); in the test with Aspergillus niger, 0.4 µg/mL (≈ 0.972 µM); with Aspergillus terreus, 50 µg/mL (≈ 122 µM); in test [2] it was 50 µg/mL (≈ 122 µM).

On to `NC(=O)c1ccc(NC(=O)C(=O)c2c(-c3ccccc3)cc3ccccn23)cc1` [Example 161, 4-[2-Oxo-2-(2-phenyl-indolizin-3-yl)-acetylamino]-benzamide], for which the MIC in the test on Aspergillus flavus was over 50 µg/mL; in test [1], over 50 µg/mL; in the test on Aspergillus niger, 6.25 µg/mL (≈ 16.3 µM); with Aspergillus terreus, over 50 µg/mL; in test [2] it was over 50 µg/mL.

`COc1ccc(NC(=O)C(=O)c2c(-c3ccncc3)cc3ccccn23)cc1` [Example 162, N-(4-Methoxy-phenyl)-2-oxo-2-(2-pyridin-4-yl-indolizin-3-yl)-acetamide]: the minimum inhibitory concentration (MIC) in the test on Aspergillus flavus was over 50 µg/mL; in test [1], over 50 µg/mL; in the test on Aspergillus niger, 3.1 µg/mL (≈ 8.35 µM); in the test with Aspergillus terreus it was over 50 µg/mL; in test [2] it was over 50 µg/mL.

Turning to `COc1ccc(NC(=O)C(=O)c2c(-c3ccccn3)cc3ccccn23)cc1` [Example 163, N-(4-Methoxy-phenyl)-2-oxo-2-(2-pyridin-2-yl-indolizin-3-yl)-acetamide], the MIC was over 50 µg/mL with Aspergillus flavus; over 50 µg/mL in test [1]; 1.6 µg/mL (≈ 4.31 µM) in the test with Aspergillus niger; over 50 µg/mL in the test on Aspergillus terreus; over 50 µg/mL in test [2].

As for `COc1ccc(NC(=O)C(=O)c2c(-c3ccco3)cc3ccccn23)cc1` [Example 164, 2-(2-Furan-2-yl-indolizin-3-yl)-N-(4-methoxy-phenyl)-2-oxo-acetamide], the MIC with Aspergillus flavus is 0.4 µg/mL (≈ 1.11 µM); in test [1], over 50 µg/mL; in the test with Aspergillus niger, 0.4 µg/mL (≈ 1.11 µM); in the test on Aspergillus terreus it was over 50 µg/mL; in test [2], over 50 µg/mL.

As for `Cc1ccc(NC(=O)C(=O)c2c(-c3ccco3)cc3ccccn23)cc1` [Example 168, 2-(2-Furan-2-yl-indolizin-3-yl)-2-oxo-N-p-tolyl-acetamide], the MIC in the test with Aspergillus flavus was 0.4 µg/mL (≈ 1.16 µM); in test [1], 3.1 µg/mL (≈ 9 µM); in the test on Aspergillus niger it was 0.4 µg/mL (≈ 1.16 µM); with Aspergillus terreus, 1.6 µg/mL (≈ 4.65 µM); in test [2], 1.6 µg/mL (≈ 4.65 µM).

Regarding `COc1ccc(NC(=O)C(=O)c2c(-c3ccco3)cc3ccccn23)c(OC)c1` [Example 169, N-(2,4-Dimethoxy-phenyl)-2-(2-furan-2-yl-indolizin-3-yl)-2-oxo-acetamide], the MIC in the test on Aspergillus flavus was found to be 0.4 µg/mL (≈ 1.02 µM); in test [1] it was 6.25 µg/mL (≈ 16 µM); with Aspergillus niger it was 0.4 µg/mL (≈ 1.02 µM); in the test with Aspergillus terreus it was 3.1 µg/mL (≈ 7.94 µM); in test [2], 3.1 µg/mL (≈ 7.94 µM).

Regarding `COc1ccc(NC(=O)C(=O)c2c(-c3ccco3)cc3ccccn23)cn1` [Example 170, 2-(2-Furan-2-yl-indolizin-3-yl)-N-(6-methoxy-pyridin-3-yl)-2-oxo-acetamide], the MIC with Aspergillus flavus is 3.1 µg/mL (≈ 8.58 µM); in test [1], over 50 µg/mL; with Aspergillus niger, 3.1 µg/mL (≈ 8.58 µM); in the test on Aspergillus terreus, over 50 µg/mL; in test [2], over 50 µg/mL.

In the case of `Cc1ccc(NC(=O)C(=O)c2c(-c3ccncc3)cc3ccccn23)cc1` [Example 171, 2-Oxo-2-(2-pyridin-4-yl-indolizin-3-yl)-N-p-tolyl-acetamide], the MIC in the test with Aspergillus flavus is 0.4 µg/mL (≈ 1.13 µM); in test [1], 1.6 µg/mL (≈ 4.5 µM); with Aspergillus niger it was over 50 µg/mL; in the test on Aspergillus terreus, 0.8 µg/mL (≈ 2.25 µM); in test [2], 50 µg/mL (≈ 141 µM).
